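A five-concentration, 48-hour dose response in 96-well plates underlies each endpoint, interpolated linearly between surrounding concentrations. GI50: concentration for 50% inhibition of growth.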 Calls of active or inactive are those of the source. Cut-off read from the data, not from the text of the source: active = GI50 up to about 1.1 µM and inactive = higher.
What was measured:
Assay in all cases: inhibition of tumour cell growth, NCI panel, 48 h
MDA-MB-231 = system: MDA-MB-231
NCI/ADR-RES = system: NCI/ADR-RES
SR = system: SR
MDA-N = system: MDA-N
HOP-92 = system: HOP-92
OVCAR-5 = system: OVCAR-5
K562 = system: K562
SW-620 = system: SW-620
SF-539 = system: SF-539
NCI-H226 = system: NCI-H226
TK-10 = system: TK-10
SK-MEL-28 = system: SK-MEL-28
ACHN = system: ACHN
UO-31 = system: UO-31
MCF7 = system: MCF7
A549 = system: A549
Hs-578T = system: Hs-578T
COLO 205 = system: COLO 205
PC-3 = system: PC-3
EKVX = system: EKVX

| SMILES | GI50 (MDA-MB-231) | GI50 (NCI/ADR-RES) | GI50 (SR) | GI50 (MDA-N) | GI50 (HOP-92) | GI50 (OVCAR-5) | GI50 (K562) | GI50 (SW-620) | GI50 (SF-539) | GI50 (NCI-H226) | GI50 (TK-10) | GI50 (SK-MEL-28) | GI50 (ACHN) | GI50 (UO-31) | GI50 (MCF7) | GI50 (A549) | GI50 (Hs-578T) | GI50 (COLO 205) | GI50 (PC-3) | GI50 (EKVX) |
| --- | --- | --- | --- | --- | --- | --- | --- | --- | --- | --- | --- | --- | --- | --- | --- | --- | --- | --- | --- | --- |
| CC(=O)O[C@H]1C(=O)[C@@]2(C)[C@H]([C@H](OC(=O)c3ccccc3)[C@]3(O)C[C@H](OC(=O)[C@H](O)[C@@H](NC(=O)c4ccccc4)C4CCCCC4)C(C)=C1C3(C)C)[C@]1(OC(C)=O)CO[C@@H]1C[C@@H]2O | < 0.01 µM (active) | 2.96 µM (inactive) | < 0.01 µM (active) | < 0.01 µM (active) | < 0.0174 µM (active) | < 0.01 µM (active) | < 0.01 µM (active) | < 0.01 µM (active) | < 0.01 µM (active) | < 0.01 µM (active) | 0.0352 µM (active) | 34.1 µM (inactive) | 0.288 µM (active) | 0.313 µM (active) | < 0.01 µM (active) | < 0.0173 µM (active) | < 0.01 µM (active) | < 0.01 µM (active) | 0.0468 µM (active) | 3 µM (inactive) |
| COc1ccc(/N=C2\C(=O)C3=C(OC(C)(C)CC3)c3ccccc32)cc1 | 1.41 µM (inactive) | 0.802 µM (active) | 0.935 µM (active) | 0.492 µM (active) | 2.66 µM (inactive) | 2.82 µM (inactive) | 0.612 µM (active) | 0.873 µM (active) | 0.005 µM (active) | 6.37 µM (inactive) | 2.33 µM (inactive) | 1.14 µM (inactive) | 0.845 µM (active) | 0.755 µM (active) | 0.9 µM (active) | 0.946 µM (active) | 1.63 µM (inactive) | 2.93 µM (inactive) | 1.29 µM (inactive) | 0.993 µM (active) |
| Cc1c(-c2ccccc2)c(C#N)c2nnn(C3CCCCC3)c(=O)n12 | 21.6 µM (inactive) | > 100 µM (inactive) | 24.8 µM (inactive) | > 100 µM (inactive) | 24 µM (inactive) | 94.4 µM (inactive) | 88.3 µM (inactive) | > 100 µM (inactive) | 47.4 µM (inactive) | 35.8 µM (inactive) | > 100 µM (inactive) | > 100 µM (inactive) | 50.5 µM (inactive) | 0.74 µM (active) | > 100 µM (inactive) | 83.4 µM (inactive) | 97.9 µM (inactive) | 88.1 µM (inactive) | 20.2 µM (inactive) | 37 µM (inactive) |
| CC1=C2c3ccccc3N(S(=O)(=O)c3ccccc3)[C@H]2[C@H](C(=O)N2C3CC4CC[C@@]3(CS2(=O)=O)C4(C)C)CC1 (some centres undefined) | > 100 µM (inactive) | 35.9 µM (inactive) | 12.5 µM (inactive) | > 10 µM (inactive) | 22.5 µM (inactive) | > 100 µM (inactive) | 7.24 µM (inactive) | > 100 µM (inactive) | 0.415 µM (active) | 37.4 µM (inactive) | 43.9 µM (inactive) | > 100 µM (inactive) | 34.3 µM (inactive) | 9.06 µM (inactive) | 18 µM (inactive) | 35.3 µM (inactive) | 0.627 µM (active) | 47.9 µM (inactive) | 8.67 µM (inactive) | 56.6 µM (inactive) |
| O=[N+]([O-])/C(Cl)=C(/C(Cl)=C(Cl)Cl)N1CCCCC1 | 24 µM (inactive) | 4.06 µM (inactive) | 3.16 µM (inactive) | 8.34 µM (inactive) | 16.1 µM (inactive) | 14.9 µM (inactive) | 7.64 µM (inactive) |  | 16.4 µM (inactive) | 13.9 µM (inactive) | 21.4 µM (inactive) | 14.5 µM (inactive) | 16.1 µM (inactive) | 8.15 µM (inactive) | 0.444 µM (active) | 12.6 µM (inactive) | 5.06 µM (inactive) | 10 µM (inactive) | 18.8 µM (inactive) | 20.3 µM (inactive) |
| O=C(Oc1ccccc1)c1cc2cc(CCl)ccc2oc1=O | 32.1 µM (inactive) | 30 µM (inactive) | 28.1 µM (inactive) | 19.9 µM (inactive) | 14.7 µM (inactive) | 97.7 µM (inactive) | 5.61 µM (inactive) | 61.9 µM (inactive) | 30.6 µM (inactive) | > 100 µM (inactive) | 17.5 µM (inactive) | 13.3 µM (inactive) | 8.99 µM (inactive) | 20.4 µM (inactive) | 20.1 µM (inactive) | 25.8 µM (inactive) | 16.9 µM (inactive) | 17.8 µM (inactive) | 14.2 µM (inactive) | 17.6 µM (inactive) |
| CC(=O)O[C@H]1C(=O)[C@@]2(C)[C@H]([C@H](OC(=O)c3ccccc3)[C@]3(O)C[C@H](OC(=O)[C@H](O)[C@@H](NC(=O)C(C)(O)C(C)O)c4ccccc4)C(C)=C1C3(C)C)[C@]1(OC(C)=O)CO[C@@H]1C[C@@H]2O (some centres undefined) | 0.359 µM (active) | > 50 µM (inactive) | 0.133 µM (active) | 0.0308 µM (active) | 0.44 µM (active) | 0.687 µM (active) | 0.172 µM (active) | 0.195 µM (active) | 0.112 µM (active) |  | 5.69 µM (inactive) |  | 14.4 µM (inactive) | 27.6 µM (inactive) | 0.076 µM (active) | 0.573 µM (active) | 0.0964 µM (active) | 0.0933 µM (active) | 0.226 µM (active) | > 50 µM (inactive) |
| C#CC(O)/C=C/C(O)CCCC(O)CC#CC(O)C#CC(O)CCCC(O)/C=C/CCCCCC(=O)CCCCCCCCCCCCCC(O)C(O)C#CC(=O)O (centres undefined) | 12.1 µM (inactive) | > 50 µM (inactive) | 13.1 µM (inactive) | > 50 µM (inactive) | 13.5 µM (inactive) | > 50 µM (inactive) | > 50 µM (inactive) |  |  | > 50 µM (inactive) | > 50 µM (inactive) | 12 µM (inactive) | > 50 µM (inactive) | > 50 µM (inactive) | 14.3 µM (inactive) | > 50 µM (inactive) | 12.2 µM (inactive) | > 50 µM (inactive) | > 50 µM (inactive) | > 50 µM (inactive) |
| CCN(CC)CCNc1ccc2ncn3c4c(OC)ccc(OC)c4c(=O)c1c23 | 12 µM (inactive) | 5.6 µM (inactive) | 3.72 µM (inactive) | 10.8 µM (inactive) | 11.2 µM (inactive) |  | 10.4 µM (inactive) | 0.853 µM (active) | 20.8 µM (inactive) | 90.8 µM (inactive) | > 100 µM (inactive) | 21.2 µM (inactive) | 4.1 µM (inactive) | > 100 µM (inactive) | 3.57 µM (inactive) | 22.5 µM (inactive) | > 10 µM (inactive) | 0.841 µM (active) | > 10 µM (inactive) | 15.3 µM (inactive) |
| CC(C)(C)CN1[C@@H]2CCCC[C@H]2N(CC(C)(C)C)P1(=O)Cc1ccccc1 | 12.2 µM (inactive) | 12.1 µM (inactive) | 11.8 µM (inactive) | 14.9 µM (inactive) |  | 12.7 µM (inactive) | 13.6 µM (inactive) | 14 µM (inactive) | 17.3 µM (inactive) | 12.9 µM (inactive) | 12.5 µM (inactive) | 16.9 µM (inactive) | 15.2 µM (inactive) | 13.3 µM (inactive) | 12.8 µM (inactive) | 11.6 µM (inactive) | 15.7 µM (inactive) | 10.4 µM (inactive) | 6.5 µM (inactive) | 14.3 µM (inactive) |
| OCCOCCO[P+]1(OCCOCCO)n2c3ccc2C(c2ccccc2)=C2C=CC(=N2)C(c2ccccc2)=c2ccc(n21)=C(c1ccccc1)C1=NC(=C3c2ccccc2)C=C1 | 0.0736 µM (active) | 7.14 µM (inactive) | 1 µM (active) | 0.0314 µM (active) |  | 0.525 µM (active) | < 0.0188 µM (active) | 0.184 µM (active) | 0.188 µM (active) | 0.162 µM (active) | 0.426 µM (active) | 0.0631 µM (active) | 0.35 µM (active) | 1.86 µM (inactive) | 0.109 µM (active) | 0.113 µM (active) | 0.127 µM (active) | 0.0206 µM (active) | 0.107 µM (active) | 0.32 µM (active) |
| CC(=O)N1CCOC12N=NC(C)(C)O2 (centres undefined) | > 100 µM (inactive) | > 100 µM (inactive) | > 100 µM (inactive) | > 100 µM (inactive) | > 100 µM (inactive) | > 100 µM (inactive) | > 100 µM (inactive) | > 100 µM (inactive) | > 100 µM (inactive) |  | > 100 µM (inactive) | > 100 µM (inactive) | > 100 µM (inactive) | > 100 µM (inactive) | > 100 µM (inactive) | > 100 µM (inactive) | > 100 µM (inactive) | > 100 µM (inactive) | > 100 µM (inactive) | > 100 µM (inactive) |
| Cn1c(=O)c2c(nc(-n3nc(-c4ccc(Cl)cc4)cc3N)n2C)n(C)c1=O | > 100 µM (inactive) | 39.6 µM (inactive) | 13 µM (inactive) | > 100 µM (inactive) | > 100 µM (inactive) | 79.8 µM (inactive) | 67.6 µM (inactive) |  | 17.3 µM (inactive) | 55.2 µM (inactive) | > 100 µM (inactive) | > 100 µM (inactive) | > 100 µM (inactive) | > 100 µM (inactive) | 68.4 µM (inactive) | > 100 µM (inactive) | 22.4 µM (inactive) | > 100 µM (inactive) | > 100 µM (inactive) | > 100 µM (inactive) |
| CN(Cc1cc(Cl)c(Cl)cc1NC(=O)CN)[C@H]1CCCC[C@@H]1N1CCCC1 | 38.5 µM (inactive) | > 100 µM (inactive) | 21.5 µM (inactive) | 17 µM (inactive) | > 100 µM (inactive) | 46.3 µM (inactive) | 17.8 µM (inactive) | 37.5 µM (inactive) |  | 66.4 µM (inactive) | 28.1 µM (inactive) | 19.8 µM (inactive) | > 100 µM (inactive) | 20.7 µM (inactive) | 32.4 µM (inactive) | 38.3 µM (inactive) | 24.9 µM (inactive) | 15.2 µM (inactive) | 50.7 µM (inactive) | 34.9 µM (inactive) |

Source: ChEMBL document CHEMBL1201862, “PubChem BioAssay data set” (2004)
